The values below come from patent US9585861B1, “Method for treating a cancer with a mixed ligand gold(III) complexes as anti-cancer agents” (KING FAHD UNIVERSITY OF PETROLEUM AND MINERALS, priority 2015, dated 2017).

SMILES strings stand for the structures. Like-named read-outs stand apart in the source and are kept apart here.

For data set [1], the system named is human gastric SGC7901 cancer cells. Description: MTT assay, in vitro cytotoxicity / cell growth inhibition on SGC7901 cells. It counts as cell-based. As to conditions: for time dependent antiproliferative effect: 10 μM, 24 h and 72 h; for IC50: 72 h exposure, MTT. The method, then:
(§1) Human gastric SGC7901 cancer and prostate PC3 cancer cell lines were provided by American Type Culture Collection (ATCC). Cells were cultured in Dulbecco's Modified Eagle Medium (DMEM) supplemented with 10% fetal calf serum (FCS), penicillin (100 kU L^−1) and streptomycin (0.1 g L^−1) at 37° C. in a 5% CO2-95% air atmosphere. MTT (3-(4,5-Dimethylthiazol-2-yl)-2,5-diphenyltetrazolium bromide, a yellow tetrazole) was purchased from Sigma Chemical Co, St. Louis, Mo., USA.
(§2) An MTT assay was used to obtain the number of living cells in the sample. Human gastric cancer SGC7901 and prostate cancer PC3 cells were seeded on 96-well plates at a predetermined optimal cell density, i.e. ca 6000 cells/100 μL per well in 96-well plates, to ensure exponential growth in the duration of the assay. After 24 h pre-incubation, the growth medium was replaced with the experimental medium containing the appropriate drug, using one of 1,2-diaminocyclohexane(1,3-propylenediamine)gold(III) chloride compounds 1, 2 and 3 or a control using water. Six duplicate wells were set up for each sample, and cells untreated with drug served as a control. In one set of culture plates, human gastric cancer SGC7901 and human prostate PC3 cells were treated with 10 μM compounds 1, 2 and 3 as the drug and the control (water) for 24, 48 and 72 h. In other sets, the compounds 1, 2 and 3 with different concentration, i.e. 10, 20 and 30 μM, were employed to determine the growth inhibitory effect for both PC3 and SGC7901 cells separately. After incubation, 10 μL MTT (6 g/L, Sigma) was added to each well and the incubation was continued for 4 h at 37° C. After removal of the medium, MTT stabilization solution [dimethylsulfoxide (DMSO):ethanol=1:1] was added to each well, and shaken for 10 min until all crystals were dissolved. Then, the optical density was detected in a micro plate reader at 550 nm wavelength using an Enzyme-Linked Immuno-Sorbent Assay (ELISA) reader. After being treated with the 1,2-diaminocyclohexane(1,3-propylenediamine)gold(III) chloride compounds 1, 2 and 3, the cell viability was examined by MTT assay. Each assay was performed in triplicate. […] These cells were treated with various concentrations of compounds 1, 2 and 3 for 24-72 h.
(§3) Human gastric SGC7901 cells and prostate PC3 cells were incubated with these compounds at fixed concentrations or with water as a control to assess the inhibitory effect on cell growth. […] The cell survival versus drug concentration is plotted. Cytotoxicity was evaluated in vitro with reference to the IC50 value. The half maximal inhibitory concentration (IC50) is a measure of the effectiveness of a compound to inhibit biological or biochemical functions. According to the FDA, IC50 represents the concentration of a drug/compound/complex that is required for 50% inhibition in vitro. It is evaluated from the survival curves as the concentration needed for a 50% reduction of survival. IC50 values are expressed in μM.
(§4) The in vitro cytotoxic effect of mixed ligand gold(III) diamine complexes against androgen-resistant prostate PC3 and human gastric SGC7901 cancer cells were studied using MTT assay. […] For that reason, we used different concentrations and a 3-day exposure protocol to determine the IC50 values for all three complexes. The in vitro cytotoxicity in terms of IC50 values of cisplatin for PC3 and SGC7901 cells was included for a comparison.

Data set [2] concerns human prostate PC3 cancer cells. Description: MTT assay, in vitro cytotoxicity / cell growth inhibition on PC3 cells. It counts as cell-based. As to conditions: for time dependent antiproliferative effect: 10 μM, 24 h and 72 h; for IC50: 72 h exposure, MTT. As to the method: as §1, §2, §3, §4
Data set [3] is described as follows: Cyclic voltammetry in reference phosphate buffer. It counts as physicochemical. The settings on record: 1.0 mM, phosphate buffer pH 7.4, platinum electrode, 50 mV/s, room temperature. As to the method: The electrochemical experiments performed at room temperature using a potentiostat (SP-300, BioLogic Science Instruments) controlled by EC-Lab v10.34 software package. The electrochemical experiments were performed at room temperature. All the measurements were performed on solutions deaerated by bubbling ultra-pure nitrogen for 15 min. The values of potential here reported were measured against a saturated calomel electrode (SCE). The cyclic voltammetry of the compounds 1, 2 and 3 were measured at scan rate of 50 mV/s on a reference buffer (40 mM phosphate, 4 mM NaCl, pH 7.4) using platinum as working electrode and graphite as a counter electrode with a concentration of 1.0 mM at room temperature. Ferrocene was used as pseudo reference to calibrate the working electrode. The couple Fe^III/II formal potential of ferrocene occur at E°′=+0.44 V (vs SCE) in 0.1 M Bu4NPF6 solution in acetonitrile which is similar to the report value under the same experimental condition [Hans J, Beckmann A, Krüger H J (1999) Eur. J. Inorg. Chem. 163-172—incorporated herein by reference in its entirety]. Conversion to values vs NHE was obtained upon adding +0.24 V to the corresponding SCE values.
The electrochemical behavior of compounds 1, 2 and 3 was investigated in a physiological environment through cyclic voltammetry (CV). […] Gold(III) complexes 1, 2 and 3 show one irreversible reduction process in which the controlled potential coulometry involves three electrons per mole. The occurrence of Au(III)/Au(O) reduction is visually indicated by the appearance of a thin gold layer deposited on the platinum electrode surface after exhaustive electrolysis (Ew, −0.7 V).

Data set [4] can be described thus: NMR stability in D2O and mixed DMSO-d6/D2O. Format: physicochemical. As to conditions: DMSO-d6/D2O (v/v 2/1), room temperature, after 7 days. The method, then:
Compounds 1, 2 and 3 were tested for their stability in water as well as mixed solvents of DMSO/water (2/1 v/v ratio) solution by ^13C and ^1H NMR. […] The hydroscopic nature of DMSO could unfortunately lead to stability issue [Ellson R, Stearns R, Mutz M, Brown C, Browning B, Harris D, Qureshi S. Shieh J, Wold D (2005) Comb. Chem. High Throughput Screen, 8:489-498—incorporated herein by reference in its entirety]. To investigate the structural stability of the compounds, NMR spectra of the compounds dissolved in D2O and mixed DMSO-d6/D2O (v/v: 2/1) solvents were obtained on immediate dissolution and latter at 24 h and after three days 72 h at room temperature in mixed DMSO-d6/D2O and at 37° C. in D2O . A minimum of 30 mg/mL of representative gold(III) compounds 1, 2 and 3 were subjected to ^1H and ^13C NMR spectra analysis followed by dissolution in D2O and DMSO-d6/D2O (v/v: 2/1, 1 mL). The duplicate samples were dissolved and immediately stored at room temperature and 37° C., respectively, and followed by determination of stability through NMR measurements for compounds 1, 2 and 3 overtime periods of 24 h and 72 h.
The NMR spectra of the complexes were obtained upon immediate dissolution to serve as reference spectra and later at 24 h and after 7 days at 37° C. in D2O and at room temperature in mixed DMSO-d6/D2O in order to determine their stability. […]

[5] abbreviates: read-out: IC50 (concentration of sample required to reduce the cell growth of tumor cell line by 50%).
[6] abbreviates: listed as complex 3, read-out: IC50 (concentration of sample required to reduce the cell growth of tumor cell line by 50%).
Where [7] appears, read: listed as complex 1, read-out: IC50 (concentration of sample required to reduce the cell growth of tumor cell line by 50%).

Regarding `NC1CCCCC1N.NCCCN.[Au+3].[Cl-].[Cl-].[Cl-]` (racemic) [Complex 2, trans-(±)-1,2-diaminocyclohexane(1,3-propylenediamine)gold(III) chloride], the “time dependent antiproliferative effect” value in data set [1] and in data set [2] was “complex 3>complex 2>complex 1” throughout. The values for the IC50 in data set [1] (setting [5]) and in data set [2] (setting [5]) were 10.9 µM and 10.2 µM, respectively. In addition, the “Peak potential Ep vs. NHE for reduction” value in data set [3] is on record as 0.25 V.
Regarding `N.N.[Cl][Pt][Cl]` [Cisplatin, reference compound], the IC50 worked out at 7.3 µM in data set [1] (setting [5]) and 1.1 µM in data set [2] (setting [5]).
For `NC1CCCCC1N.NCCCN.[Au+3].[Cl-].[Cl-].[Cl-]` [Complex 3, (S,S)-(+)-1,2-diaminocyclohexane(1,3-propylenediamine)gold(III) chloride], the “time dependent antiproliferative effect” value in data set [1] was “better cell inhibition against both PC3 and SGC7901 cell lines than complexes 1 and 2”; in data set [1] (listed as complex 3), “complex 3>complex 2>complex 1”; in data set [2], “better cell inhibition against both PC3 and SGC7901 cell lines than complexes 1 and 2”; in data set [2] (listed as complex 3), “complex 3>complex 2>complex 1”. Also, the IC50 in data set [1] (setting [6]) amounted to 10.1 µM; in data set [2] (setting [6]) it was 9.1 µM. Moreover, the “dissociation of 1,3-propylenediamine” value in data set [4] is “approximately 50%”. The “Peak potential Ep vs. NHE for reduction” value in data set [3] (listed as 3) was 0.24 V.
With `NC1CCCCC1N.NCCCN.[Au+3].[Cl-].[Cl-].[Cl-]` (stereo not drawn) [Complex 1, cis-1,2-diaminocyclohexane(1,3-propylenediamine)gold(III) chloride], the “time dependent antiproliferative effect” value in data set [1] (listed as complex 1) and in data set [2] (listed as complex 1) was “complex 3>complex 2>complex 1” throughout. Besides, the IC50 in data set [1] (setting [7]) came out at 10.8 µM; in data set [2] (setting [7]), 9.5 µM. In addition, in data set [2] (10 μM and 20 μM, 24 h), the “concentration dependent cell growth inhibition” value is “much better cell inhibition against PC3 cancer cell than complexes 3 and 2”. Also, the “Peak potential Ep vs. NHE for reduction” value in data set [3] (listed as 1) worked out at 0.34 V.
